Assay results reported in patent US11752188B2, “Compositions and methods for nutritional supplements” (DailyColors Health Inc., priority 2020, dated 2023).
Where two headings read alike, the source gives them in different places.

How the values were obtained:
human recombinant ARG2 = biological target: T1, human recombinant ARG2 (Homo sapiens, UniProt P78540); assay: ARG2 enzymatic inhibition assay (thioarginine substrate, UV absorbance 412 nm); assay type: biochemical
T1 sequence (P78540 23-354): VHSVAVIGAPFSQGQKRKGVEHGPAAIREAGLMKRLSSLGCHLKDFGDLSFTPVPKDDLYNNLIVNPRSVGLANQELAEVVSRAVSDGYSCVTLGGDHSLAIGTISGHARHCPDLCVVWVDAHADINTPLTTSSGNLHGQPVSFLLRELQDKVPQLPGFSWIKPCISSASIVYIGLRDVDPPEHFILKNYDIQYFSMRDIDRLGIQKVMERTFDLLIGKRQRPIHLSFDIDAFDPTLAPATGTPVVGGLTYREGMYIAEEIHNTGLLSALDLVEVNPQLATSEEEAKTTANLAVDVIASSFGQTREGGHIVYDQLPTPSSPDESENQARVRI
Method: (§1) Assay conditions: The assay was performed using human recombinant ARG1 or ARG2 as enzymes and thioarginine as substrate. The UV absorbance at 412 nm was correlated with the amount of reaction product of ARG1/ARG2. […] 5 μl of 20× sample solutions were added to 90 μl of substrate, and reactions were started by the addition of 5 μl of 20× ARG1/ARG2 solutions. For the negative control (Blank), 5 μl of the assay buffer was added instead of the ARG1/ARG2. […] All reactions were conducted at room temperature and incubated for 30 minutes, ensuring that all wells, containing either samples or controls, contained 0.7% (v/v) EtOH final concentration to discard any solvent effect. UV absorbance readings were done at times 0 and 30 minutes to get net values. Absorbance was measured using a Tecan Infinite M1000 microplate reader.
(§2) Data Analysis: Experiment was performed in duplicate at each concentration. The data were analyzed using the software GraphPad Prism. In the absence of the compound, the net absorbance (At) in each data set was defined as 100% activity. In the absence of ARG1/ARG2, the net absorbance (Ab) in each data set was defined as 0% activity. The percent activity in the presence of each compound was calculated according to the following equation: % activity=[(A−Ab)/(At−Ab)]×100, where A=the absorbance in the presence of the compound.

human recombinant ARG1 = biological target: T2, human recombinant ARG1 (Homo sapiens, UniProt P05089); assay: ARG1 enzymatic inhibition assay (thioarginine substrate, UV absorbance 412 nm); assay type: biochemical
T2 sequence (P05089 1-322): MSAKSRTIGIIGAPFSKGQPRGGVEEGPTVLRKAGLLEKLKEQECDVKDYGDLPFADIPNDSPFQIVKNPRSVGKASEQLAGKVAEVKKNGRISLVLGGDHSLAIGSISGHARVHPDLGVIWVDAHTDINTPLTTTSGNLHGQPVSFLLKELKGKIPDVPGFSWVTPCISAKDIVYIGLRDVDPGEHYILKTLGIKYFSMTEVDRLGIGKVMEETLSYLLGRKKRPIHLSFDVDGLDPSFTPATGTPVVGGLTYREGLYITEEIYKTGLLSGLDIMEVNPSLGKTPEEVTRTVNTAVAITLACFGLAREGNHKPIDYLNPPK
Method: as §1, §2

recombinant human IDO2 = biological target: T3, recombinant human IDO2 (Homo sapiens, UniProt Q6ZQW0); assay: IDO2 UV absorbance assay (L-tryptophan, 321 nm); assay type: biochemical; conditions: for Absorbance (net) Repeat 1 / Absorbance (net) Repeat 2: Table 46
T3 construct: purchased 71194
T3 sequence (Q6ZQW0 1-407): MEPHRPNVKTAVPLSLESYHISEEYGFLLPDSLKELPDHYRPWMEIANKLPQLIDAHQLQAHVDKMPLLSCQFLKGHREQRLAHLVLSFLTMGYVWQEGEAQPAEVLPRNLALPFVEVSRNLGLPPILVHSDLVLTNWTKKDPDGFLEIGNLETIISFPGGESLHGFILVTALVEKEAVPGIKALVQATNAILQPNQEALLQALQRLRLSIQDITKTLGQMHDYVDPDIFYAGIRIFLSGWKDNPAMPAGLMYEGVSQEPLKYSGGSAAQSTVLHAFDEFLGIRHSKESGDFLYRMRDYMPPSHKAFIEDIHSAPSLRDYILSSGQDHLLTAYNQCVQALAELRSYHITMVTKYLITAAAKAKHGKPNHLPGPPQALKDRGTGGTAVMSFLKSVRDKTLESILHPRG

SIRT1 = biological target: T4, SIRT1 (Homo sapiens, UniProt Q96EB6); assay: SIRT1 fluorogenic HDAC substrate activity assay; assay type: biochemical
T4 construct: purchased 50012
T4 sequence (Q96EB6 1-747): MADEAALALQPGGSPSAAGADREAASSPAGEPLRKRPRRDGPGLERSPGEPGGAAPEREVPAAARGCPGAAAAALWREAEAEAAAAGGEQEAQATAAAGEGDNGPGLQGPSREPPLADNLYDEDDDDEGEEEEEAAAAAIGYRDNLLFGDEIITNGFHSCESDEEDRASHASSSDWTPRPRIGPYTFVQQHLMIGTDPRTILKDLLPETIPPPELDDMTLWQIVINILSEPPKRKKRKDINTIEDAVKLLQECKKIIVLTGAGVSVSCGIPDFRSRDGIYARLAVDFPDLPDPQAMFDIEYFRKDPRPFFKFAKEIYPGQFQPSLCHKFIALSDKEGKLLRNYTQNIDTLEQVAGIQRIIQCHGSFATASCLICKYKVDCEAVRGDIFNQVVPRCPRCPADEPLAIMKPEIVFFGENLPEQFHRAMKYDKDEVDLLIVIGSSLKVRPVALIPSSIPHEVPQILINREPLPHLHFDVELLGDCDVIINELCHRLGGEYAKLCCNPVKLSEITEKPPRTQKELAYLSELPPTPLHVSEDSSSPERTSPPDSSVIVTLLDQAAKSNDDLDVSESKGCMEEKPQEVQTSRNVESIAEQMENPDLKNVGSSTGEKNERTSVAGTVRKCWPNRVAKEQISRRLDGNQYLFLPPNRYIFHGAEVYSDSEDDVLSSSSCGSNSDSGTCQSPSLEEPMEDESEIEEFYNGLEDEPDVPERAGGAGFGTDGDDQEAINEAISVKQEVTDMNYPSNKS
Method: Assay Conditions: The sample was dissolved in 70% EtOH. The serial dilution of the compound was first performed in 70% EtOH with the highest concentration at 1%.
The enzymatic reactions for the SIRT1 enzyme were conducted in duplicate at 37° C. for 30 minutes in a 50 μl mixture containing SIRT assay buffer, 5 μg BSA, an HDAC substrate (see 2.3.1), a SIRT enzyme, and a test compound. After enzymatic reactions, 50 μl of 2× SIRT Developer was added to each well for the SIRT enzymes and the plate was incubated at room temperature for an additional 15 minutes. Fluorescence intensity was measured at an excitation of 360 nm and an emission of 460 nm using a Tecan Infinite M1000 microplate reader.
Data Analysis: SIRT activity assays were performed in duplicates at each concentration. […] In the absence of the compound, the fluorescent intensity (Ft) in each data set was defined as 100% activity. In the absence of SIRT, the fluorescent intensity (Fb) in each data set was defined as 0% activity. The percent activity in the presence of each compound was calculated according to the following equation: % activity=(F−Fb)/(Ft−Fb), where F=the fluorescent intensity in the presence of the compound.

[1] = biological target: T5, recombinant human CD47 (hCD47) with human SIRP-α (Homo sapiens, UniProt Q08722); assay: CD47/SIRP-α in vitro binding assay
T5 construct: purchased 71177 (hCD47, Fc fusion); 71138 (hSIRP-α, Biotin-labeled)
T5 sequence (Q08722 19-141 limits assumed): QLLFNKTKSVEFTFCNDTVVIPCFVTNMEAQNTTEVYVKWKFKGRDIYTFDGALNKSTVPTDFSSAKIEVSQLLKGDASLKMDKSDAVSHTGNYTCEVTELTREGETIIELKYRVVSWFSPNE
Method: Assay Conditions: CD47 was coated using 50 μL at 2 ng/μL at 4° C. overnight. After wash and block steps the test compounds were added to CD47-coated plate followed by addition of SIRP-α-biotin. Reaction was incubated for 2 h at room temperature. Binding was detected using HRP-conjugated Streptavidin.

[2] = test concentration 0.001 μM, read-out: Activity (%) Rep. 1
[3] = test concentration 0.01 μM, read-out: Activity (%) Rep. 1
[4] = test concentration 0.1 μM, read-out: Activity (%) Rep. 1
[5] = read-out: Activity (%) Repeat 1
[6] = read-out: Activity (%) Repeat 2

## N=C(NO)NCC[C@H](N)C(=O)O [nor-NOHA]
Human recombinant ARG2; test concentration 0.001 μM
  Net absorbance Rep. 1: 0.78
  Net absorbance Rep. 2: 0.82
Human recombinant ARG2; test concentration 0.001 μM, read-out: ARG-2 Inhibition (%)
  inhibition at 0.001 µM: 17%
Human recombinant ARG2; [2]
  activity at 0.001 µM: 81%
Human recombinant ARG2; test concentration 0.001 μM, read-out: Activity (%) Rep. 2
  activity at 0.001 µM: 84%
Human recombinant ARG2; test concentration 0.01 μM
  Net absorbance Rep. 1: 0.56
  Net absorbance Rep. 2: 0.60
Human recombinant ARG2; test concentration 0.01 μM, read-out: ARG-2 Inhibition (%)
  inhibition at 0.01 µM: 41%
Human recombinant ARG2; [3]
  activity at 0.01 µM: 57%
Human recombinant ARG2; test concentration 0.01 μM, read-out: Activity (%) Rep. 2
  activity at 0.01 µM: 62%
Human recombinant ARG2; test concentration 0.1 μM
  Net absorbance Rep. 1: 0.19
  Net absorbance Rep. 2: 0.19
Human recombinant ARG2; test concentration 0.1 μM, read-out: ARG-2 Inhibition (%)
  inhibition at 0.1 µM: 81%
Human recombinant ARG2; [4]
  activity at 0.1 µM: 19%
Human recombinant ARG2; test concentration 0.1 μM, read-out: Activity (%) Rep. 2
  activity at 0.1 µM: 19%
Human recombinant ARG1; test concentration 0.001 μM
  Net absorbance Rep. 1: 0.74
  Net absorbance Rep. 2: 0.77
Human recombinant ARG1; test concentration 0.001 μM, read-out: ARG-1 Inhibition (%)
  inhibition at 0.001 µM: 0%
Human recombinant ARG1; [2]
  activity at 0.001 µM: 99%
Human recombinant ARG1; test concentration 0.001 μM, read-out: Activity (%) Rep.2
  activity at 0.001 µM: 102%
Human recombinant ARG1; test concentration 0.01 μM
  Net absorbance Rep. 1: 0.59
  Net absorbance Rep. 2: 0.59
Human recombinant ARG1; test concentration 0.01 μM, read-out: ARG-1 Inhibition (%)
  inhibition at 0.01 µM: 22%
Human recombinant ARG1; [3]
  activity at 0.01 µM: 79%
Human recombinant ARG1; test concentration 0.01 μM, read-out: Activity (%) Rep.2
  activity at 0.01 µM: 78%
Human recombinant ARG1; test concentration 0.1 μM
  Net absorbance Rep. 1: 0.23
  Net absorbance Rep. 2: 0.24
Human recombinant ARG1; test concentration 0.1 μM, read-out: ARG-1 Inhibition (%)
  inhibition at 0.1 µM: 69%
Human recombinant ARG1; [4]
  activity at 0.1 µM: 31%
Human recombinant ARG1; test concentration 0.1 μM, read-out: Activity (%) Rep.2
  activity at 0.1 µM: 31%

## NS(=O)(=O)NCCNc1nonc1C(=NO)Nc1ccc(F)c(Br)c1 [INCB024360]
Recombinant human IDO2
  inhibition at 0.01 µM: 0%
  inhibition at 0.1 µM: 20%
  inhibition at 1 µM: 60%
Recombinant human IDO2; 0.01 μM
  Absorbance (net) Repeat 1: 0.17
  Absorbance (net) Repeat 2: 0.17
Recombinant human IDO2; 0.1 μM
  Absorbance (net) Repeat 1: 0.14
  Absorbance (net) Repeat 2: 0.15
Recombinant human IDO2; 1 μM
  Absorbance (net) Repeat 1: 0.10
  Absorbance (net) Repeat 2: 0.11
Recombinant human IDO2; [5]
  activity at 0.01 µM: 105%
  activity at 0.1 µM: 75%
  activity at 1 µM: 35%
Recombinant human IDO2; [6]
  activity at 0.01 µM: 105%
  activity at 0.1 µM: 85%
  activity at 1 µM: 45%

## Cc1ccc(C(=O)Nc2ccc(S(=O)(=O)O)c3cc(S(=O)(=O)O)cc(S(=O)(=O)O)c23)cc1NC(=O)c1cccc(NC(=O)Nc2cccc(C(=O)Nc3cc(C(=O)Nc4ccc(S(=O)(=O)O)c5cc(S(=O)(=O)O)cc(S(=O)(=O)O)c45)ccc3C)c2)c1 [Suramin]
SIRT1
  inhibition at 0.1 µM: 14%
  inhibition at 1 µM: 74%
SIRT1; read-out: % Activity Repeat 1
  activity at 0.1 µM: 85%
  activity at 1 µM: 26%
SIRT1; read-out: % Activity Repeat 2
  activity at 0.1 µM: 86%
  activity at 1 µM: 26%
SIRT1; test concentration 0.01 μM
  SIRT1 Activity (Fluorescence count) Repeat 1: 2415
  SIRT1 Activity (Fluorescence count) Repeat 2: 2415
  inhibition at 0.01 µM: 0%
SIRT1; test concentration 0.01 μM, read-out: % Activity Repeat 1
  activity at 0.01 µM: 100%
SIRT1; test concentration 0.01 μM, read-out: % Activity Repeat 2
  activity at 0.01 µM: 100%
SIRT1; test concentration 0.1 μM
  SIRT1 Activity (Fluorescence count) Repeat 1: 2074
  SIRT1 Activity (Fluorescence count) Repeat 2: 2082
SIRT1; test concentration 1 μM
  SIRT1 Activity (Fluorescence count) Repeat 1: 710
  SIRT1 Activity (Fluorescence count) Repeat 2: 702

## SIRP-α
[1]; 0.05 μM
  Activity (%) Repeat 1: 93%
  Activity (%) Repeat 2: 97%
  Inhibition (%): 5%
  Luminescence Repeat 1: 35347
  Luminescence Repeat 2: 36581
[1]; 0.5 μM
  Activity (%) Repeat 1: 52%
  Activity (%) Repeat 2: 51%
  Inhibition (%): 49%
  Luminescence Repeat 1: 19746
  Luminescence Repeat 2: 19259
[1]; 5 μM
  Activity (%) Repeat 1: 14%
  Activity (%) Repeat 2: 18%
  Inhibition (%): 84%
  Luminescence Repeat 1: 5310
  Luminescence Repeat 2: 6891
